In ChEMBL document CHEMBL4346657, “Anticancer activity, dual prooxidant/antioxidant effect and apoptosis induction profile of new bichalcophene-5-carboxamidines” (Eur J Med Chem, 2019):
pIC50: −log10 of the molar value. Calls of active or inactive are those of the source. The calls are words filed in the database; no cut-off is given here.

How the values were obtained:
[1] = test system: ACHN; assay: Antiproliferative activity against human ACHN cells assessed as growth inhibition after 48 hrs by sulforhodamine B assay; assay type: functional
[2] = test system: PC-3; assay: Antiproliferative activity against human PC3 cells assessed as growth inhibition after 48 hrs by sulforhodamine B assay; assay type: functional; settings: PC-3, 48 h
[3] = test system: Hs-578T; assay: Antiproliferative activity against human Hs578T cells assessed as growth inhibition after 48 hrs by sulforhodamine B assay; assay type: functional
[4] = test system: HT-29; assay: Antiproliferative activity against human HT-29 cells assessed as growth inhibition after 48 hrs by sulforhodamine B assay; assay type: functional; settings: HT-29, 48 h
[5] = test system: NCI-H460; assay: Antiproliferative activity against human NCI-H460 cells assessed as growth inhibition after 48 hrs by sulforhodamine B assay; assay type: functional; settings: NCI-H460, 48 h
[6] = test system: HCT-116; assay: Antiproliferative activity against human HCT116 cells assessed as growth inhibition after 48 hrs by sulforhodamine B assay; assay type: functional; settings: HCT-116, 48 h
[7] = test system: SK-MEL-2; assay: Antiproliferative activity against human SK-MEL-2 cells assessed as growth inhibition after 48 hrs by sulforhodamine B assay; assay type: functional; settings: SK-MEL-2, 48 h
[8] = test system: OVCAR-8; assay: Antiproliferative activity against human OVCAR8 cells assessed as growth inhibition after 48 hrs by sulforhodamine B assay; assay type: functional; settings: OVCAR-8, 48 h
[9] = test system: SF-295; assay: Antiproliferative activity against human SF295 cells assessed as growth inhibition after 48 hrs by sulforhodamine B assay; assay type: functional; settings: SF-295, 48 h
[10] = test system: UO-31; assay: Antiproliferative activity against human UO31 cells assessed as growth inhibition after 48 hrs by sulforhodamine B assay; assay type: functional; settings: UO-31, 48 h
[11] = Antioxidant activity assessed as ABTS radical scavenging activity by spectrophotometric analysis relative to control; assay type: functional; parameters: concentration or dose not given beside the values; settings: dose or concentration not given here
[12] = test system: U-251; assay: Antiproliferative activity against human U251 cells assessed as growth inhibition after 48 hrs by sulforhodamine B assay; assay type: functional; settings: U-251, 48 h
[13] = test system: NCI-H322M; assay: Antiproliferative activity against human NCI-H322M cells assessed as growth inhibition after 48 hrs by sulforhodamine B assay; assay type: functional
[14] = test system: NCI-H522; assay: Antiproliferative activity against human NCI-H522 cells assessed as growth inhibition after 48 hrs by sulforhodamine B assay; assay type: functional; settings: NCI-H522, 48 h
[15] = test system: OVCAR-3; assay: Antiproliferative activity against human OVCAR3 cells assessed as growth inhibition after 48 hrs by sulforhodamine B assay; assay type: functional; settings: OVCAR-3, 48 h
[16] = test system: K562; assay: Antiproliferative activity against human K562 cells assessed as growth inhibition after 48 hrs by sulforhodamine B assay; assay type: functional, cell-based; settings: K562, 48 h, read-out: IC50
[17] = test system: SF-268; assay: Antiproliferative activity against human SF268 cells assessed as growth inhibition after 48 hrs by sulforhodamine B assay; assay type: functional; settings: SF-268, 48 h
[18] = Antioxidant activity assessed as ABTS radical scavenging activity by spectrophotometric method relative to ascorbic acid; assay type: functional
[19] = Pro-oxidant activity assessed as increase in bleomycin-Fe2+ induced calf thymus DNA damage at 2 mM after 1 hr by thiobarbituric acid based absorbance analysis
[20] = test system: NCI-H226; assay: Antiproliferative activity against human NCI-H226 cells assessed as growth inhibition after 48 hrs by sulforhodamine B assay; assay type: functional; settings: NCI-H226, 48 h
[21] = test system: Malme-3M; assay: Antiproliferative activity against human MALME-3M cells assessed as growth inhibition after 48 hrs by sulforhodamine B assay; assay type: functional
[22] = test system: A498; assay: Antiproliferative activity against human A498 cells assessed as growth inhibition after 48 hrs by sulforhodamine B assay; assay type: functional; settings: A498, 48 h
[23] = test system: NCI/ADR-RES; assay: Antiproliferative activity against human NCI-ADR-RES cells assessed as growth inhibition after 48 hrs by sulforhodamine B assay; assay type: functional
[24] = test system: Panel NCI-60 (60 carcinoma cell lines); assay: Antiproliferative activity against human NCI60 cells assessed as growth inhibition at 10 uM after 48 hrs by sulforhodamine B assay; assay type: functional; settings: read-out: GI
[25] = test system: HOP-62; assay: Antiproliferative activity against human HOP62 cells assessed as growth inhibition after 48 hrs by sulforhodamine B assay; assay type: functional; settings: HOP-62, 48 h
[26] = test system: UACC-62; assay: Antiproliferative activity against human UACC62 cells assessed as growth inhibition after 48 hrs by sulforhodamine B assay; assay type: functional; settings: UACC-62, 48 h
[27] = test system: OVCAR-4; assay: Antiproliferative activity against human OVCAR4 cells assessed as growth inhibition after 48 hrs by sulforhodamine B assay; assay type: functional; settings: OVCAR-4, 48 h
[28] = test system: HCT-116; assay: […] in CDK1 mRNA expression in human HCT116 cells at 100 nM after 6 hrs hrs by SYBR green dye-based qRT-PCR analysis relative to control; assay type: functional
[29] = test system: EKVX; assay: Antiproliferative activity against human EKVX cells assessed as growth inhibition after 48 hrs by sulforhodamine B assay; assay type: functional
[30] = test system: TK-10; assay: Antiproliferative activity against human TK10 cells assessed as growth inhibition after 48 hrs by sulforhodamine B assay; assay type: functional; settings: TK-10, 48 h
[31] = test system: SK-OV-3; assay: Antiproliferative activity against human SKOV3 cells assessed as growth inhibition after 48 hrs by sulforhodamine B assay; assay type: functional; settings: SK-OV-3, 48 h
[32] = test system: SW-620; assay: Antiproliferative activity against human SW620 cells assessed as growth inhibition after 48 hrs by sulforhodamine B assay; assay type: functional; settings: SW-620, 48 h
[33] = test system: Erythrocyte; assay: Haemolytic activity in human erythrocytes assessed as induction of hemolysis at 1.25 mM after 30 mins relative to H202; assay type: cell-based; settings: erythrocyte, 0.5 h, 1250 µM
[34] = test system: MCF7; assay: Antiproliferative activity against human MCF7 cells assessed as growth inhibition after 48 hrs by sulforhodamine B assay; assay type: functional; settings: MCF7, 48 h
[35] = test system: Erythrocyte; assay: Haemolytic activity in human erythrocytes assessed as induction of hemolysis at 0.625 mM after 30 mins relative to H202; assay type: cell-based; settings: erythrocyte, 0.5 h, 625 µM
[36] = Antioxidant activity assessed as DPPH radical scavenging activity incubated in dark for 30 mins by spectrophotometric method relative to ascorbic acid; assay type: functional
[37] = test system: MDA-MB-435; assay: Antiproliferative activity against human MDA-MB-435 cells assessed as growth inhibition after 48 hrs by sulforhodamine B assay; assay type: functional; settings: MDA-MB-435, 48 h
[38] = test system: CCRF-CEM; assay: Antiproliferative activity against human CCRF-CEM cells assessed as growth inhibition after 48 hrs by sulforhodamine B assay; assay type: functional
[39] = Haemolytic activity in human erythrocytes assessed as induction of hemolysis at 10 mM after 30 mins relative to H202; assay type: cell-based, Erythrocyte; settings: read-out: Activity
[40] = test system: DU-145; assay: Antiproliferative activity against human DU145 cells assessed as growth inhibition after 48 hrs by sulforhodamine B assay; assay type: functional; settings: DU-145, 48 h
[41] = test system: SNB-75; assay: Antiproliferative activity against human SNB75 cells assessed as growth inhibition after 48 hrs by sulforhodamine B assay; assay type: functional; settings: SNB-75, 48 h
[42] = test system: COLO 205; assay: Antiproliferative activity against human COLO205 cells assessed as growth inhibition after 48 hrs by sulforhodamine B assay; assay type: functional; settings: COLO 205, 48 h
[43] = test system: RPMI-8226; assay: Antiproliferative activity against human RPMI8226 cells assessed as growth inhibition after 48 hrs by sulforhodamine B assay; assay type: functional; settings: RPMI-8226, 48 h

N=C(N)c1ccc(-c2ccc(-c3cc(Cl)cc(Cl)c3)o2)o1
GI50 [1]: 1710 nM | GI50 [2]: 1800 nM | GI50 [3]: 2220 nM | GI50 [4]: 1500 nM | GI50 [5]: 1900 nM | GI50 [6]: 1210 nM | GI50 [7]: 2020 nM | GI50 [8]: 2230 nM | GI50 [9]: 1770 nM | GI50 [10]: 1710 nM | inhibition [11]: 19% | GI50 [12]: 1820 nM | GI50 [13]: 1620 nM | GI50 [14]: 1730 nM | GI50 [15]: 1700 nM | pIC50 [16]: 5.89 | GI50 [17]: 1770 nM | fold change (FC) [18]: 0.2 | Activity [19]: Active | GI50 [20]: 2200 nM | GI50 [21]: 1840 nM | GI50 [22]: 1610 nM | GI50 [23]: 1840 nM | inhibition of growth at 10 µM [24]: -57.8% | GI50 [25]: 1890 nM | GI50 [26]: 1940 nM | GI50 [27]: 1850 nM | fold change (FC) [28]: 0.54 | GI50 [29]: 1640 nM | GI50 [30]: 1860 nM | GI50 [31]: 1800 nM | GI50 [32]: 1680 nM | Activity [33]: Non-Toxic | GI50 [34]: 1350 nM | Activity [35]: Non-Toxic | fold change (FC) [36]: 0.2 | GI50 [37]: 1610 nM | GI50 [38]: 1870 nM | hemolysis at 0.5 h, 10000 µM [39]: 89.3% | GI50 [40]: 1780 nM | GI50 [41]: 1410 nM | GI50 [42]: 1310 nM | GI50 [43]: 2130 nM

N=C(N)c1ccc(-c2ccc(-c3ccc(Cl)cc3)o2)o1
GI50 [1]: 1890 nM | GI50 [2]: 1810 nM | GI50 [3]: 2000 nM | GI50 [4]: 1680 nM | GI50 [5]: 1890 nM | GI50 [6]: 1900 nM | GI50 [7]: 2080 nM | GI50 [8]: 2020 nM | GI50 [9]: 1830 nM | GI50 [10]: 1750 nM | inhibition [11]: 20.4% | GI50 [12]: 1880 nM | GI50 [13]: 1670 nM | GI50 [14]: 1730 nM | GI50 [15]: 1830 nM | pIC50 [16]: 5.86 | GI50 [17]: 1750 nM | fold change (FC) [18]: 0.2 | Activity [19]: Active | GI50 [20]: 2190 nM | GI50 [21]: 1910 nM | GI50 [22]: 2120 nM | GI50 [23]: 1800 nM | inhibition of growth at 10 µM [24]: -2.02% | GI50 [25]: 1650 nM | GI50 [26]: 1890 nM | GI50 [27]: 1800 nM | fold change (FC) [28]: 0.93 | GI50 [29]: 1500 nM | GI50 [30]: 2070 nM | GI50 [31]: 1790 nM | GI50 [32]: 1700 nM | GI50 [34]: 1270 nM | Activity [35]: Non-Toxic | fold change (FC) [36]: 0.2 | GI50 [37]: 1380 nM | GI50 [38]: 1960 nM | hemolysis at 0.5 h, 10000 µM [39]: 97.3% | GI50 [40]: 1750 nM | GI50 [41]: 1500 nM | GI50 [42]: 1830 nM | GI50 [43]: 2120 nM

COc1cc(-c2ccc(-c3ccc(C(=N)N)s3)s2)cc(OC)c1OC
GI50 [1]: 1780 nM | GI50 [2]: 1770 nM | GI50 [4]: 1240 nM | GI50 [5]: 1990 nM | GI50 [6]: 1730 nM | GI50 [8]: 2620 nM | GI50 [9]: 1780 nM | GI50 [10]: 1740 nM | inhibition [11]: 75.4% | GI50 [12]: 1990 nM | GI50 [13]: 2380 nM | GI50 [14]: 1940 nM | GI50 [15]: 2220 nM | pIC50 [16]: 5.95 | GI50 [17]: 1740 nM | fold change (FC) [18]: 0.8 | Activity [19]: Active | GI50 [20]: 1880 nM | GI50 [21]: 1740 nM | GI50 [22]: 2250 nM | GI50 [23]: 3440 nM | inhibition of growth at 10 µM [24]: 73.5% | GI50 [25]: 1970 nM | GI50 [26]: 1700 nM | GI50 [27]: 1820 nM | fold change (FC) [28]: 0.81 | GI50 [29]: 1920 nM | GI50 [30]: 2700 nM | GI50 [31]: 5150 nM | GI50 [32]: 1910 nM | Activity [33]: Non-Toxic | GI50 [34]: 1660 nM | Activity [35]: Non-Toxic | fold change (FC) [36]: 0.7 | GI50 [37]: 1640 nM | GI50 [38]: 3420 nM | hemolysis at 0.5 h, 10000 µM [39]: 79.7% | GI50 [40]: 2320 nM | GI50 [41]: 1500 nM | GI50 [42]: 2130 nM | GI50 [43]: 2460 nM
